Reference: patent US7456292B2, “Hydroxamic acid-containing amino acid derivatives” (Bexel Pharmaceuticals, Inc., priority 2005, dated 2008)
Counter-ions that a name gives are not always drawn.

Tests used:
[1] = test system: TNF-α; test: LPS induced sepsis model in mice, serum TNF-α; type: in vivo; conditions: Mus musculus, SW mice, serum after 90 min
Description: (§1) SW mice were orally treated with vehicle, dexamethasone (5 mg/kg) and compounds at a dose of 50 mg/kg body weight one hour before LPS injection (10 μg/mouse, ip) and blood was collected after 90 min and measured serum TNF-α and IL-6 levels by ELISA.

[2] = test system: TNF-α; test: LPS induced TNF-α in THP-1 monocytic cells; type: cell-based; conditions: Homo sapiens, LPS 1 μg/mL 24 hours
Description: (§2) Human THP-1 monocyte cells were cultured and incubated with compounds at different concentrations. Cells were then challenged with lipopolysaccharides (LPS) at a concentration of (1 μg/mL) for 24 hours. Cell supernatants were then analyzed for the presence of TNF-α cytokines by antibody directed enzyme-linked immunoassay from R & D System, Minneapolis, USA.

[3] = test system: Collagen Induced Arthritis Model; test: Collagen induced arthritis model; type: in vivo; conditions: male DBA/1 Lac mice, oral 50 mg/kg daily
Description: Arthritis induced in male DBA/1 Lac mice with bovine collagen (100 μg/mouse). Booster dose was given on Day 21 and started treatment when clinical score was about 2. […] Dexamethasone was kept as positive control. Severity of each paw score was defined from 0=no erythma to 4=severe arthritis for the swollen paws with a maximum possible score of 16 for 4 paws (4×4) in one animal.

[4] = test system: TNF-α; test: LPS induced TNF-α in hPBMC; type: cell-based; conditions: Homo sapiens, read-out: Inhibition (%) TNF-α
Description: as §2, with “PBMC” for “THP-1”, “TNF-α, IL-6 and IL-1β” for “TNF-α”, “immunoassay. Dexamethasone was used as a positive control in the experiments.” for “immunoassay from R & D System, Minneapolis, USA.”

[5] = test system: carrageenan induced paw inflammation; test: Carrageenan induced inflammation in rats; type: in vivo; conditions: Sprague-Dowley rats, 50 mg/kg oral, paw volume after 2 and 3 hours
Description: Sprague-Dowley rats with average weight of 250 g (6-7 weeks of age) were randomized in three groups, and given 50 mg/kg oral dose of compound of example 6. Thirty minutes later carrageenan was administered in the sub-planter region of right hind paws. The control group received equal volume of water without any compound. Paw volume was measured after 2 and 3 hours. Dexamethasone at a concentration of 5 mg/kg was used as a positive control in this experiment.

[6] = test system: Lymphocyte proliferation; test: MBP induced lymphocyte proliferation (thymidine incorporation); type: cell-based; conditions: MBP stimulated lymph node cells of SJL mice, 72 h
Description: (§3) FIG. 6: Inhibition of myelin basic protein (MBP) induced […] mice were immunized with 400 μg of myelin basic protein (MBP) in CFA on day 0 and 7 and regional lymph nodes were harvested on day 14 and cultured with MBP in the presence or absence of compound 22 for 72 h. Lymphocyte proliferation was determined by thymidine incorporation assay. Cell culture supernatants from MBP stimulated and compound 22 treated cells were assayed for gamma interferon using ELISA.

[7] = test system: IL-12 (p40); test: CD40 ligand-mediated synthesis of IL-12 (p40) in mouse peritoneal macrophages; type: cell-based; conditions: mouse peritoneal macrophages stimulated with 2 μg/mL soluble CD40 ligand
Description: To further confirm the inhibition of IL-12 secretion mediated by CD40, induction of IL-12 (p40) was examined following activation of macrophages by soluble CD40 ligand, CD 154. Mouse peritoneal macrophages, were stimulated with 2 μg/mL of soluble […] (Immunex) in the presence of compound 22.

[8] = test system: intestinal bowel disease (IBD) induced by dextran sodium sulphate (DSS); test: DSS induced inflammatory bowel disease in mice; type: in vivo; conditions: male SW mice, 4% DSS, daily dose 50 mg/kg body weight in PEG400
Description: DAI is comprised of factors such as body weight, stool quality and occult blood content. A 4% solution of DSS was provided as drinking water and DAI was monitored twice a week for the induction of disease. Following this the animals were treated with a daily dose 50 mg/kg body weight of compound 22 in PEG400 formulations and the activity index was monitored twice a week.

[9] = test system: gamma interferon; test: Myelin basic protein (MBP) induced gamma interferon in lymph node cultures; type: cell-based; conditions: MBP stimulated lymph node cells of SJL mice, 72 h, ELISA
Description: as §3

[10] = test system: IL-6; test: LPS induced sepsis model in mice, serum IL-6; type: in vivo; conditions: Mus musculus; SW mice, oral 5 mg/kg bw one hour before LPS, serum after 90 min
Description: as §1

[11] = test system: IL-6; test: LPS induced IL-6 in hPBMC; type: cell-based; conditions: Homo sapiens, LPS 1 μg/mL 24 hours
Description: as §2, with “PBMC” for “THP-1”, “TNF-α, IL-6 and IL-1β” for “TNF-α”, “immunoassay. Dexamethasone was used as a positive control in the experiments.” for “immunoassay from R & D System, Minneapolis, USA.”

[12] = test system: IL-1β; test: LPS induced IL-1β in hPBMC; type: cell-based; conditions: Homo sapiens, LPS 1 μg/mL 24 hours
Description: as §2, with “PBMC” for “THP-1”, “TNF-α, IL-6 and IL-1β” for “TNF-α”, “immunoassay. Dexamethasone was used as a positive control in the experiments.” for “immunoassay from R & D System, Minneapolis, USA.”

[13] = test system: T cell proliferation; test: Inhibition of T cell proliferation; type: cell-based, mice
Description: SJL mice were immunized with keyhole limpet hemocyanin (KLH) in complete Freund's adjuvant (CFA). 12 days later regional lymph nodes were isolated and a proliferative response to KLH in the presence or absence of drug was performed (in presence of 3H thymidine). The results are expressed at Stimulation index (CPM+antigen/CPM no antigen). Similarly, mitogen induced concanavalin A (CON-A), IL-4, IL-2 induced T cell proliferation was measured in presence of compounds are shown in Table VI.

[14] = test system: IL-12; test: IL-12 secretion following LPS stimulation of mouse spleenic macrophages; type: cell-based; conditions: mouse splenic macrophages stimulated with LPS for 72 hrs
Text: Compound 6 of this class inhibited IL-12 production in mouse splenic macrophages stimulated with LPS for 72 hrs.

[15] = hPBMC, 10 μM, LPS 1 μg/mL 24 hours, * average of two experiments

Question: What does the source list for `Cl.NC(Cc1ccc(Oc2ccc(C(=O)NO)cc2)cc1)C(=O)O` (stereo not shown) [Compound 9, 2-amino-3-[4-(4-hydroxycarbamoyl-phenoxy)-phenyl]-propionic acid hydrochloric acid salt]?
Answer: inhibition at 50 mg/kg ([1]; oral 50 mg/kg body weight one hour before LPS): 45%; inhibition at 10 µM [2]: 20%; arthritic scores [3]: significantly improved the arthritic scores

Question: How did the inhibition at 10 µM [4, 15] turn out when `Cc1ccc(S(=O)(=O)NC(Cc2ccc(Oc3ccc(C(=O)NO)cc3)cc2)C(=O)N(C)C)cc1` (stereo not shown) [Compound 14, 4-{4-[2-Dimethylcarbamoyl-2-(toluene-4-sulfonylamino)-ethyl]-phenoxy}-N-hydroxy-benzamide] was run?
Answer: 22%

Question: How did the inhibition at 10 µM [4, 15] turn out when `CC(C)OC(=O)C(N)Cc1ccc(Oc2ccc(C(=O)O)cc2)cc1` (stereo not shown) [Compound 15, 4-[4-(2-Amino-2-isopropoxycarbonylethyl)-phenoxy]-benzoicacid] was run?
Answer: 40.1%

Question: `CC(C)OC(=O)C(N)Cc1ccc(Oc2ccc(C(=O)NO)cc2)cc1` (stereo not shown) [Compound 16, 2-Amino-3-[4-(4-hydroxycarbamoylphenoxy)-phenyl]-propionic acid isopropyl ester] was tested. Which “inflammation induced by carrageenan (paw volume)” value [5] did it give?
Answer: substantially lower the inflammation induced by carrageenan

Question: And the inhibition at 10 µM [4, 15]?
Answer: 69.2%

Question: `CN(C)C(=O)[C@@H](N)Cc1ccc(Oc2ccc(C(=O)NO)cn2)cc1` [Compound 21, L-6-[4-(2-amino-2-dimethylcarbamoyl-ethyl)-phenoxy]-N-hydroxy-nicotinamide hydrochloride] was tested. Which inhibition at 10 µM [4, 15] did it give?
Answer: 36.1%

Question: For `NC(Cc1ccc(Oc2ccc(C(=O)NO)cc2)cc1)C(=O)[O-].[Na+]` (stereo not shown) [Compound 22, 2-amino-3-[4-(4-hydroxycarbamoyl-phenoxy)-phenyl]-propionic acid sodium salt], which “T cell proliferative response” value [6] is on record?
Answer: normal T cell proliferative response

Question: And the “inhibition of IL-12 (p40)” value [7]?
Answer: prominent inhibition of IL-12

Question: What about the “disease activity index (DAI)” value [8] of the same molecule?
Answer: lowering of disease activity index

Question: What about the arthritic scores [3] of the same molecule?
Answer: significantly improved the arthritic scores

Question: And the inhibition at 10 µM ([4]; 24 h)?
Answer: 40%

Question: And the gamma interferon levels [9]?
Answer: decrease in gamma interferon levels

Question: With `C[C@@H]1C[C@H]2[C@@H]3CCC4=CC(=O)C=C[C@]4(C)[C@@]3(F)[C@@H](O)C[C@]2(C)[C@@]1(O)C(=O)CO` [Dexamethasone, reference compound] as the molecule, how does the inhibition at 5 mg/kg [10] read?
Answer: 50%

Question: And the inhibition at 10 µM [11]?
Answer: 14%

Question: And the inhibition at 5 mg/kg ([1]; oral 5 mg/kg bw one hour before LPS)?
Answer: 70%

Question: What about the inhibition at 10 µM [2] of the same molecule?
Answer: 70%

Question: And the inhibition at 10 µM [12]?
Answer: 26%

Question: And the inhibition at 10 µM [4, 15]?
Answer: 42%

Question: Which results are given for `CS(=O)(=O)c1ccc(C2=C(c3ccccc3)C(=O)OC2)cc1` [rofecoxib, reference compound]?
Answer: effect on T cells (proliferation) [13]: did not show any effect on T cells; IL-12 production [14]: no effect was observed
